Data reported in US10543195B2, “Peptides for skin rejuvenation and methods of using the same” (Anteis SA, priority 2013, dated 2020).
* marks the point of attachment. Palmitoyl = CCCCCCCCCCCCCCCC(=O)*

Key:
fibrillin 1 = experiment: RT-qPCR gene expression in NHDF: fibrillin 1; format: cell-based, human; details: 300 ppm (0.03%), 24 h, vs control
Experimental: (§1) Normal human dermal fibroblasts (NHDF); used at the 8th passage, were cultured in culture medium (DMEM supplemented with 10% fetal calf serum, 2 mM L-glutamine, 50 U/ml penicillin, and 50 μg/ml streptomycin) in 24-well plates for 48 h at 37° C. and 5% CO2 with a renewal of culture medium after 24 h. The culture medium was then removed, replaced by assay medium (DMEM culture medium supplemented with 1% fetal calf serum, 2 mM L-glutamine, 50 U/ml penicillin, and 50 μg/ml streptomycin) and the cells were further incubated for 24 h. The cells were then treated with the test peptides, or not (control), or with the reference TGF-beta 1 and incubated for 24 h. […] The expression of the markers was analyzed using quantitative real time polymerase chain reaction (RT-qPCR) method on mRNA extracted from the cell monolayers for each treatment; whereby the replicates were pooled before RNA extraction. […] The amount and quality of RNA were evaluated using a lab-on-a-chip Bioanalyzer (Agilent Technologies). […] Quantification of cDNA was performed using Nanovue (GE Healthcare) and cDNA was adjusted. […]
(§2) The incorporation of the fluorescence in amplified DNA was continuously measured during the PCR cycles. […] The value selected for RE calculations is the “output point” (Ct) of the fluorescence curve. For a considered marker, the highest is the cycle number; the lowest is the mRNA quantity. […]

collagen VII (alpha 1) = experiment: RT-qPCR gene expression in NHDF: collagen VII (alpha 1); format: cell-based, human; details: 300 ppm (0.03%), 24 h, vs control
Experimental: as §1, §2

laminin (alpha 4) = experiment: RT-qPCR gene expression in NHDF: laminin (alpha 4); format: cell-based, human; details: 300 ppm (0.03%), 24 h, vs control
Experimental: as §1, §2

hyaluronan synthase 2 = experiment: RT-qPCR gene expression in NHDF: hyaluronan synthase 2; format: cell-based, human; details: 300 ppm (0.03%), 24 h, vs control
Experimental: as §1, §2

[1] = test system: heparan sulfate protoglycan 2; experiment: RT-qPCR gene expression in NHDF: heparan sulfate protoglycan 2; format: cell-based, human; details: 300 ppm (0.03%), 24 h, vs control
Experimental: as §1, §2

collagen I (alpha 1) = experiment: RT-qPCR gene expression in NHDF: collagen I (alpha 1); format: cell-based, human; details: 24 h, vs control; for stimulation of formation of collagen I (alpha 1) (mRNA, RT-qPCR): 300 ppm (0.03%)
Experimental: (§3) Normal human dermal fibroblasts (NHDF); used at the 8th passage, were cultured in culture medium (DMEM supplemented with 10% fetal calf serum, 2 mM L-glutamine, 50 U/ml penicillin, and 50 μg/ml streptomycin) in 24-well plates for 48 h at 37° C. and 5% CO2 with a renewal of culture medium after 24 h. The culture medium was then removed, replaced by assay medium (DMEM culture medium supplemented with 1% fetal calf serum, 2 mM L-glutamine, 50 U/ml penicillin, and 50 μg/ml streptomycin) and the cells were further incubated for 24 h. The cells were then treated with the test peptides, or not (control), or with the reference TGF-beta 1 and incubated for 24 h. All experimental conditions were performed 4-times (n=4). At the end of the incubation, the cells were washed in PBS solution and immediately frozen at about −80° C. The expression of the markers was analyzed using quantitative real time polymerase chain reaction (RT-qPCR) method on mRNA extracted from the cell monolayers for each treatment; whereby the replicates were pooled before RNA extraction. Analysis of gene expression was performed in duplicate (n=2) using a PCR array. Total RNA was extracted from each sample using TriPure Isolation Reagent® according to the supplier's instructions. The amount and quality of RNA were evaluated using a lab-on-a-chip Bioanalyzer (Agilent Technologies). […] Quantification of cDNA was performed using Nanovue (GE Healthcare) and cDNA was adjusted. […]
as §2
(§4) This evaluation was realized with non-cytotoxic concentrations of the test peptides. Cytotoxicity of the test peptides in the assay medium was previously determined in NHDF by the MTT reduction assay and morphological observations with help of microscope after a 24 h incubation time. […]

collagen VI (alpha 1) = experiment: RT-qPCR gene expression in NHDF: collagen VI (alpha 1); format: cell-based, human; details: 300 ppm (0.03%), 24 h, vs control
Experimental: as §1, §2

collagen III (alpha 1) = experiment: RT-qPCR gene expression in NHDF: collagen III (alpha 1); format: cell-based, human; details: 24 h, vs control; for stimulation of formation of collagen III (alpha 1) (mRNA, RT-qPCR): 300 ppm (0.03%)
Experimental: as §3, §2, §4

collagen V (alpha 1) = experiment: RT-qPCR gene expression in NHDF: collagen V (alpha 1); format: cell-based, human; details: 300 ppm (0.03%), 24 h, vs control
Experimental: as §1, §2

hyaluronic acid [2] = experiment: Hyaluronic acid ELISA in culture supernatant of NHDF; format: cell-based, human; details: 72 h
Text: For the interpretation of the data related to the stimulation of the formation of extracellular matrix components as determined during the in vitro experiments, a “significant” stimulation of the formation of extracellular matrix components means a stimulation of at least 20% more than measured using a control material under identical experimental conditions. The control material is the identical material (here: assay medium) as used when testing the active (here: peptide(s)) but without the active(s).
Normal human dermal fibroblasts (NHDF); used at the 8th passage, were cultured in culture medium (DMEM supplemented with 10% fetal calf serum, 2 mM L-glutamine, 50 U/ml penicillin, and 50 μg/ml streptomycin) in 96-well plates for 24 h at 37° C. and 5% CO2.
Afterwards, the culture medium was removed and replaced by assay medium (DMEM culture medium supplemented with 2% fetal calf serum, 2 mM L-glutamine, 50 U/ml penicillin, and 50 μg/ml streptomycin) containing the test peptides or not (control). The cells were then incubated for 72 h. All experimental conditions were performed 3-times (n=3). At the end of the incubation, culture supernatants were collected and immediately frozen at about −80° C.
Hyaluronic acid was quantified in the culture supernatant using the Duoset Hylaluronan ELISA kit (R&D Systems Ref. DY3614, 0.37 ng/ml as low detection limit) according to the provider's specifications.
This evaluation was realized with non-cytotoxic concentrations of the test peptides. Cytotoxicity of the test peptides in the assay medium was previously determined in NHDF by the MTT reduction assay and morphological observations with help of microscope after a 72 h incubation time.

elastin = experiment: RT-qPCR gene expression in NHDF: elastin; format: cell-based, human; details: 300 ppm (0.03%), 24 h, vs control
Experimental: as §1, §2

collagen XVI (alpha 1) = experiment: RT-qPCR gene expression in NHDF: collagen XVI (alpha 1); format: cell-based, human; details: 300 ppm (0.03%), 24 h, vs control
Experimental: as §1, §2

rat experimental wounds = details: cited from earlier work
hyaluronic acid [3] = details: oil-in-water vehicle containing 50 ppm GEKG for sixty days; cited from earlier work
human skin explants = details: 3H-proline-incorporation; cited from earlier work
collagen I = details: ELISA, normal human dermal fibroblasts; cited from earlier work
collagen III = details: immunofluorescence, normal human dermal fibroblasts; cited from earlier work

CCCCCCCC(=O)NCCC(=O)NC(Cc1cnc[nH]1)C(=O)O (stereo not drawn) [Octanoyl Carnosine, Octanoyl-beta-Ala-His-OH]
stimulation of formation of fibrillin 1 (mRNA, RT-qPCR) (fibrillin 1): 23%
stimulation of formation of collagen VII (alpha 1) (mRNA, RT-qPCR) (collagen VII (alpha 1)): 97%
stimulation of formation of laminin (alpha 4) (mRNA, RT-qPCR) (laminin (alpha 4)): 20%
stimulation of formation of hyaluronan synthase 2 (mRNA, RT-qPCR) (hyaluronan synthase 2): 23%
stimulation of formation of heparan sulfate protoglycan 2 (mRNA, RT-qPCR) [1]: 79%
stimulation of formation of collagen I (alpha 1) (mRNA, RT-qPCR) (collagen I (alpha 1)): 38%
stimulation of formation of collagen VI (alpha 1) (mRNA, RT-qPCR) (collagen VI (alpha 1)): 46%
stimulation of formation of collagen III (alpha 1) (mRNA, RT-qPCR) (collagen III (alpha 1)): 120%
stimulation of formation of collagen V (alpha 1) (mRNA, RT-qPCR) (collagen V (alpha 1)): 35%
stimulation of synthesis of hyaluronic acid (hyaluronic acid [2]; alone at 100 pm): −5%
stimulation of formation of elastin (mRNA, RT-qPCR) (elastin): 51%
stimulation of formation of collagen XVI (alpha 1) (mRNA, RT-qPCR) (collagen XVI (alpha 1)): 91%

NCCC(=O)N[C@@H](Cc1cnc[nH]1)C(=O)O [beta-alanyl-histidine]
stimulation of formation of collagen I (alpha 1) (mRNA, RT-qPCR) (collagen I (alpha 1)): 28%
stimulation of formation of collagen III (alpha 1) (mRNA, RT-qPCR) (collagen III (alpha 1)): 24%

GHK-Cu
collagen accumulation (rat experimental wounds): statistical significant increase of collagen accumulation

Gly-His-Lys [GHK]
collagen accumulation (rat experimental wounds): no effect

NH2-Gly-Glu-Lys-Gly-OH (H-GEKG-OH)
hyaluronic acid formation (hyaluronic acid [3]): stimulate hyaluronic acid formation
stimulation of synthesis of hyaluronic acid (hyaluronic acid [2]; alone at 100 or 300 ppm): up to 25%

Palmitoyl-Gly-His-Lys-OH [Palmitoyl-GHK]
stimulation of synthesis of hyaluronic acid (hyaluronic acid [2]; alone at 10 or 30 ppm): up to 11%
increase of collagen synthesis (human skin explants): up to 75.3%

TGF-beta 1: reference TGF-beta 1 (10 ng/ml) in the gene expression test
stimulation of formation of collagen I (mRNA, RT-qPCR) (collagen I (alpha 1); 10 ng/ml): 245%
stimulation of formation of collagen III (mRNA, RT-qPCR) (collagen III (alpha 1); 10 ng/ml): 164%

palmitoyl-KMO2K—OH
increase of collagen I formation (collagen I): 111%
increase of collagen III formation (collagen III): 104%
